US12133900B2, “Synthesis and composition of amino acid linking groups conjugated to compounds used for the targeted imaging of tumors” (Purdue Research Foundation, priority 2013, dated 2024)
pKd: −log10 of the molar value. Entries after “also recorded” stand apart in the source; their conditions may differ.

What was measured:
[1] = target: T1, folate receptor (FR-α) on KB cells (Homo sapiens, UniProt P15328); assay: Competition binding with [3H]-folic acid on KB cells; conditions: for affinity and specificity for folate receptor (words) / pKd: KB cells; for Relative binding affinities: relative affinity of folic acid=1, <1 weaker; for pKd: 10 nM [3H]-folic acid, 1 h at 37 °C, read-out: dissociation constants (KD)
T1 construct: KB cells that overexpress FR-α were seeded in 24-well (100,000 cells/well) Falcon plates; host or cells: KB cells (human; described as a HeLa derivative)
Description: KB cells that overexpress FR-α were seeded in 24-well (100,000 cells/well) Falcon plates and allowed to form monolayers over a period of 24 h. […] After incubating for 1 hour at 37° C., cells were rinsed with PBS (2×0.5 mL) and 1M trichloroacetic acid (1×0.5 mL) to remove any unbound radioactive materials. After adding 1% sodium dodecylsulfate in PBS (0.5 mL), cells were transferred into individual scintillation vials containing Ecolume scintillation cocktail (3.0 mL) and counted in a liquid scintillation analyzer. The relative binding affinities were calculated using a plot of cell bound radioactivity versus the concentration of the test article using Graph Pad Prism 4.
(§1) KB cells that overexpress FR-α were seeded in 24-well (100,000 cells/well) Falcon plates (BD Biosciences, CA) and allowed to form monolayers over a period of 12 h. […] After incubating for 1 h at 37° C., cells were rinsed with PBS (3×0.5 mL, Gibco, NY) to remove any unbound radioactive materials. After adding 0.25 M sodium hydroxide (0.5 mL) and incubating for 12 h at 4° C., cells were transferred into individual scintillation vials containing Ecolite scintillation cocktail (3.0 mL, MP Biomedicals, OH) and counted in a liquid scintillation analyzer (Packard). The relative binding affinities were calculated using a plot of % cell bound radioactivity versus the log concentration of the test article using GraphPad Prism 4.
as §1, with “12 hours.” for “12 h.”, “1 hour” for “1 h”, “12 hours” for “12 h”

[2] = Toxicity in healthy nude mice; type: in vivo
Description: Seven-week-old healthy female nude mice (5 mice/group) were administered with 1 μmol of freshly prepared OTL-0038 or OTL-0039 dissolved in 100 μL of phosphate buffered saline via tail vein injection on day zero. Body weights and clinical observations were monitored prior to dosing and daily thereafter from day zero to 7. Any animals with a body weight loss of 20% or more over two consecutive days would be euthanized, but this was not necessary. The animals were euthanized by CO2 asphyxiation on day 7 and selected tissues (brain, heart, lung, liver, spleen, kidney, stomach, small intestine, large intestine, muscle, skin) were collected into vials containing 4% formalin. Formalin fixed tissues were sectioned into 10 μm thick sections and mounted onto Superfrost Plus™ slides (Fisher Scientific, Pittsburgh Pa.). After staining the slides with H&E, immunohistochemistry (IHC) analysis of the tissues was conducted to determine to the toxicity of OTL-0038 and OTL-0039.

[3] = system: folate receptor positive KB tumor xenografts; assay: Whole body imaging and tissue biodistribution, KB tumor xenografts; type: in vivo, mice; conditions: for whole body imaging: accumulation / tumor fluorescence intensity, direct comparison: 10 nmol i.v.; for whole body imaging: accumulation / tumor fluorescence intensity, direct comparison / tumor fluorescence: 2 h; for tumor fluorescence: 10 nmol
Description: (§2) Seven-week-old female nu/nu mice were inoculated subcutaneously with KB cells (1.0×10^6/mouse in folate free RPM11640 medium) on the shoulder. […] […] Whole body imaging (intact tumor) experiments were then performed using a Caliper IVIS Lumina II Imaging Station with Living Image 4.0 software (PerkinElmer Inc, MA). Settings for imaging:—lamp level: medium; excitation: 745 nm; emission: 830 nm; epi illumination; binning: 4 (M), FOV=12.5; f-stop=2; acquisition time=1 s.
(§3) Following whole body imaging, animals were dissected and selected tissues (heart, lung, liver, spleen, kidneys, stomach, small intestine, large intestine, muscle, skin, tumor) were analyzed for fluorescence activity using IVIS imager as before. Settings for imaging: lamp level: medium; excitation: 745 nm; emission: 830 nm; epi illumination; binning: 4 (M), FOV=12.5; f-stop=2; acquisition time=1 s.
as §2, with “shoulder. Growth of the tumors was measured in perpendicular directions every 2 days using a caliper (body weights were monitored on the same schedule), and the volumes of the tumors were calculated as 0.5×L×W^2 (L=longest axis and W=axis perpendicular to L in millimeters).” for “shoulder.”, “ICG (830 nm);” for “830 nm;”
as §3, with “skin, and” for “skin,”, “imaging:—lamp” for “imaging: lamp”, “emission:ICG (830 nm);” for “emission: 830 nm;”
Five-week-old female nu/nu mice were inoculated subcutaneously with KB cells (1.0×10^6/mouse in RPMI medium) on their shoulders. Growth of the tumors was measured in two perpendicular directions every 2 days using a caliper (body weights were monitored on the same schedule), and the volumes of the tumors were calculated as 0.5×L×W^2 (L) longest axis and W) axis perpendicular to L in millimeters). Once tumors reached between 400 and 500 mm3 in volume, animals were treated with folate receptor-targeted NIR dye conjugate (10 nmol) in phosphate buffered saline (100 μL). […]
Animal imaging experiments were performed using a Caliper Ivis Lumina II Imaging Station with Living Image 4.0 software. Settings for imaging Alexa Fluor 647 and DyLight 680 conjugates: lamp level: high; excitation: 605; emission: Cy5.5; epi illumination; binning: (M) 4; FOV=7.5; f-stop=4; acquisition time=1 s. Settings for imaging DyLight 750 and IR800CW conjugates: lamp level: high; excitation: 745; emission: ICG; epi illumination; binning: (M) 4, FOV=12.5; f-stop=4; acquisition time=1 s.
Seven-week-old female nu/nu mice were inoculated subcutaneously with KB cells (1.0×10^6/mouse in folate free RPM11640 medium) on the shoulder. Growth of the tumors was measured in perpendicular directions every 2 days using a caliper (body weights were monitored on the same schedule), and the volumes of the tumors were calculated as 0.5×L×W^2 (L=longest axis and W=axis perpendicular to L in millimeters). Once tumors reached between 400 and 500 mm3 in volume, animals (5 mice/group) were intravenously injected with 10 nmol of OTL-0038 or OTL-0039 in phosphate buffered saline (100 μL). After 2.5 hours, animals were euthanized by CO2 asphyxiation. Whole body imaging (intact tumor) experiments were then performed using a Caliper IVIS Lumina II Imaging Station with Living Image 4.0 software (PerkinElmer Inc, MA). […]

[4] = Chemical and optical properties of NIR dyes (Table 1); type: physicochemical

T1 sequence (P15328 25-234): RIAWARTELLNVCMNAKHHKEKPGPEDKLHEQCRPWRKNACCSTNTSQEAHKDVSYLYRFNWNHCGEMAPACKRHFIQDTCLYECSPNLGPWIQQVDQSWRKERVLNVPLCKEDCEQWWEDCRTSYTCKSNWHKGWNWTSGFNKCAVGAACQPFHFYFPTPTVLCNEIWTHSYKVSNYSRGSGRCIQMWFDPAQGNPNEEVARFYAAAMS

Molecule	Relative binding affinities [1]	whole body imaging: accumulation [3]	pKd [1]	other results
CC1(C)C(=CC=C2CCCC(C=CC3=[N+](CCCCS(=O)(=O)[O-])c4ccc(S(=O)(=O)O)cc4C3(C)C)=C2Oc2ccc(C[C@@H](NC(=O)c3ccc(NCc4cnc5nc(N)[nH]c(=O)c5n4)cc3)C(=O)O)cc2)N(CCCCS(=O)(=O)O)c2ccc(S(=O)(=O)O)cc21 [OTL-0039, PTE-D-Tyr-S0456]	0.09	–	–	affinity and specificity for folate receptor (words) [1]: lower affinity for folate receptor when compared to folic acid and OTL-0038; toxicity (conclusion) ([2]; 1 μmol (1000× clinical dose)): not toxic to animals; skin colour immediately after the injection ([2]; 1 μmol tail vein): became green; activity and behaviour ([2]; 1 μmol tail vein, day 0 to 7): behaved normally throughout the study; body weights over the course of the study ([2]; 1 μmol tail vein, day 0 to 7): remained stable; lesions in tissues (IHC data) ([2]; 1 μmol tail vein, day 7): no lesions identified in any tissues
Pte-p-homo-Tyr-S0456 [OTL-0047]	0.625	accumulated predominantly in the folate receptor-positive tumors; also recorded: mainly accumulated in the tumors	7.89	–
FA-EDA-Kodak2 [OTL-0004]	0.271	did not accumulated in the tumors	7.51	tumor fluorescence intensity, direct comparison [3]: very low specificity for the tumor and low fluorescence
Pteroyl-Cys-S0456 [OTL-0054]	–	accumulated predominantly in the folate receptor-positive tumors	–	–
Pte-Tyr-13C-S0456 [OTL-0040]	0.290	–	7.56	–
Pte-N(Me)-Tyr-S0456 [OTL-0044]	–	accumulated predominantly in the folate receptor-positive tumors; also recorded: mainly accumulated in the tumors	–	affinity and specificity for folate receptor (words) [1]: All the compounds have an affinity for folate receptor except OTL-0044 and OTL-0045
Pte-homo-Tyr-S0456 [OTL-0046]	0.580	accumulated predominantly in the folate receptor-positive tumors; also recorded: mainly accumulated in the tumors	7.86	–
CC1(C)C(/C=C/C2=C(Oc3ccc(S(=O)(=O)O)cc3)C(=C/C=C3/N(CCCCS(=O)(=O)O)c4ccc(S(=O)(=O)[O-])cc4C3(C)C)/CCC2)=[N+](CCCCCC(=O)O)c2ccc(S(=O)(=O)O)cc21 [IR800CW]	–	–	–	E [4]: 237000 M⁻¹ cm⁻¹; Q (%) [4]: 14.2%; Stokes Shift (nm) [4]: 14 nm; λem (nm) [4]: 786 nm; λex (nm) [4]: 800 nm
Pte-NHNH-Tyr-(OAc)-S0456 [OTL-0045]	–	–	–	affinity and specificity for folate receptor (words) [1]: All the compounds have an affinity for folate receptor except OTL-0044 and OTL-0045
Pte-Tyr-(OBn)-S0456 [OTL-0043]	0.177	–	7.83	–
FA-EDA-LS288 [OTL-0001]	0.270	accumulated predominantly in the folate receptor positive tumors	7.51	–
FA-EDA-IR800 [OTL-0002]	0.430	accumulated predominantly in the folate receptor positive tumors	7.71	tumor fluorescence intensity, direct comparison [3]: brighter (higher fluorescence intensity); also recorded: highest tumor-accumulated fluorescence
Pteroyl-Lys-S0456 [OTL-0053]	–	–	–	tumor fluorescence ([3]; excited at 605-675 nm, emitted at ICG (830 nm)): bright tumor fluorescence; tumor fluorescence ([3]; excited at 710-745 nm, emitted at ICG): only a moderate brightness; Stoke's shift ([3]; in vivo imaging): longer Stoke's shift
CC1(C)C(/C=C/C=C/C=C/C=C2\N(CCCCS(=O)(=O)O)c3ccc4ccccc4c3C2(C)C)=[N+](CCCCS(=O)(=O)[O-])c2ccc3ccccc3c21 [ICG, indocyanine green]	–	–	–	E [4]: 121000 M⁻¹ cm⁻¹; Q (%) [4]: 9.3%; Stokes Shift (nm) [4]: 15 nm; λem (nm) [4]: 807 nm; λex (nm) [4]: 822 nm
Pte-Tyr-2H(Deuterated)-S0456 [OTL-0042]	0.130	–	7.21	–
Pteroyl DAP-S0456 [OTL-0056]	0.078	–	7.02	–
CC1(C)C(=CC=C2CCCC(C=CC3=[N+](CCC[N+](C)(C)C)c4ccc(S(=O)(=O)O)cc4C3(C)C)=C2Oc2ccc(CCC(=O)O)cc2)N(CCC[N+](C)(C)C)c2ccc(S(=O)(=O)O)cc21 [ZW80o]	–	–	–	E [4]: 249000 M⁻¹ cm⁻¹; Q (%) [4]: 15.1%; Stokes Shift (nm) [4]: 16 nm; λem (nm) [4]: 772 nm; λex (nm) [4]: 788 nm
Pte-Tyramine-S0456 [OTL-0049]	0.265	–	7.52	–
FA-EDA-ZW800 [OTL-0003]	0.356	accumulated predominantly in the folate receptor positive tumors	7.63	tumor fluorescence intensity, direct comparison [3]: highest tumor-accumulated fluorescence
